Measured values from patent publication US20260325533A1, “CDK INHIBITOR COMPOUNDS” (ALEKSIA THERAPEUTICS, INC., priority 2023, published 2026).
pIC50: −log10 of the molar value. Where two headings read alike, the source gives them in different places.

Tests used:
Type in all cases: biochemical
CDK6/CCND1 = CDK6/CCND1 (Homo sapiens, UniProt Q00534); experiment: CDK6 homogeneous time-resolved fluorescence (HTRF) kinase assay; details: CDK6/CCND
In short: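 Recombinant CDK6/CCND1 (1 nM final) was preincubated with compound for 20 min at 23 °C in HEPES buffer with MgCl2, EGTA, DTT and Tween 20. Kinase reaction then ran 60 min at 23 °C with 1 mM ATP and 50 nM ULight-4E-BP1 (Thr37/46) peptide, and was stopped with EDTA.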

CDK4/CCND3 = CDK4/CCND3 (Homo sapiens, UniProt P11802); experiment: CDK4 homogeneous time-resolved fluorescence (HTRF) kinase assay; details: CDK4/CCND
Sequence of CDK4/CCND3 (P11802 whole entry): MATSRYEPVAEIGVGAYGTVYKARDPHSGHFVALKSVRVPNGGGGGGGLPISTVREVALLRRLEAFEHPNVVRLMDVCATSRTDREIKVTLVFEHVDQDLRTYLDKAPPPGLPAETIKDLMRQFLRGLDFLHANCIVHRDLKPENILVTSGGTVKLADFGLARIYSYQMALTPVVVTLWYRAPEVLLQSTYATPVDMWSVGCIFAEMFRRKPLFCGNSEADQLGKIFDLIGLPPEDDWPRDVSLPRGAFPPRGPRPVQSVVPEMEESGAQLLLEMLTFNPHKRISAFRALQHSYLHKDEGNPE
Sequence of CDK4/CCND3 (P30281 whole entry partner): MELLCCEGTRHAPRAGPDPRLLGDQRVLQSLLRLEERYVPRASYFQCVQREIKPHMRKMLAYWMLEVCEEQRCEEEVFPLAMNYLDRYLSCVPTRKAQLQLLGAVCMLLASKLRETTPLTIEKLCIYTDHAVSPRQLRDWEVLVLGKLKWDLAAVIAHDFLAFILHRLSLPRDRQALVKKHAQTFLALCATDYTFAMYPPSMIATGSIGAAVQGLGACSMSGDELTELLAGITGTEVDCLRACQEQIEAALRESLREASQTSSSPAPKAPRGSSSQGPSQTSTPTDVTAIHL
In short: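 HTRF kinase assay, CDK4/CCND3 1.5 nM, ATP 1 mM, ULight-4E-BP1 peptide 50 nM, 23 °C, 60 min reaction after 20 min preincubation. Eu-anti-pThr37/46 antibody detection. 11-pt half-log curves from 10 μM → IC50.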

CDK2/CCNE1 = CDK2/CCNE1 (Homo sapiens, UniProt P24941); experiment: CDK2 homogeneous time-resolved fluorescence (HTRF) kinase assay; details: CDK2/CCNE
In short: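 IC50 derived from 11-point, half-log dilutions (usually top 10 μM) of compound, 1% DMSO. Kinase (3 nM CDK2/CCNE1) was preincubated with compound 20 min, then phosphorylated 50 nM ULight-4E-BP1 peptide at 1 mM ATP for 60 min, 23 °C. Europium-antibody TR-FRET read after EDTA stop.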

CDK1/CCNB1 = CDK1/CCNB1 (Homo sapiens, UniProt P06493); experiment: CDK1 homogeneous time-resolved fluorescence (HTRF) kinase assay; details: CDK1/CCNB
Sequence of CDK1/CCNB1 (P06493 whole entry): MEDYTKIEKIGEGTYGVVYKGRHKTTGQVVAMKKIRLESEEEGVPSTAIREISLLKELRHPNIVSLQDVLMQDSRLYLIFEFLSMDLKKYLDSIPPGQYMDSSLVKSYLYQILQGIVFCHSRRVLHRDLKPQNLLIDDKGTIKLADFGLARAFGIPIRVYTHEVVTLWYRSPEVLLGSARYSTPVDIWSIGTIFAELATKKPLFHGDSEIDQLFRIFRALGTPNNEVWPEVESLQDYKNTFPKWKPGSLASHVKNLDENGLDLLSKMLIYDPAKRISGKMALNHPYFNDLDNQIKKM
Sequence of CDK1/CCNB1 (P14635 whole entry partner): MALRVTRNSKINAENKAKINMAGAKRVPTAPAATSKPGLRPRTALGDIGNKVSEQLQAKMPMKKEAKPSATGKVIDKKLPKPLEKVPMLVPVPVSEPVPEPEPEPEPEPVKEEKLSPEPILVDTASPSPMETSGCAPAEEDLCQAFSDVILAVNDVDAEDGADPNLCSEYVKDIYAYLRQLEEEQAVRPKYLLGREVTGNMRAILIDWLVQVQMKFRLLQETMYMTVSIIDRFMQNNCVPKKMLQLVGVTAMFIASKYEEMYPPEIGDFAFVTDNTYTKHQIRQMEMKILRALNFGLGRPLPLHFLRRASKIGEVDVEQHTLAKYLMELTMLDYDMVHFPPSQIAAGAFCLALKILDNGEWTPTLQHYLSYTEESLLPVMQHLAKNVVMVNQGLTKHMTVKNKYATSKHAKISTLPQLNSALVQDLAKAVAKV
In short: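 High-ATP (1 mM) HTRF assay with 0.5 nM CDK1/cyclin B1 and 50 nM ULight-4E-BP1 (Thr37/46) substrate, 60 min at 23 °C after 20-min compound preincubation. IC50 values come from dose-response curves.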

[1] = x = IC50 >250 nM, read-out: CDK6/CCND IC50 (>250 nM column)
[2] = x = IC50 >250 nM, read-out: CDK4/CCND IC50 (>250 nM column)
[3] = x = IC50 <25 nM, read-out: CDK2/CCNE IC50 (<25 nM)
[4] = x = IC50 >250 nM, read-out: CDK1/CCNB IC50 (>250 nM column)
[5] = x = IC50 25-250 nM, read-out: CDK2/CCNE IC50 (25-250 nM)
[6] = x = IC50 25-250 nM, read-out: CDK6/CCND IC50 (25-250 nM)
[7] = x = IC50 25-250 nM, read-out: CDK4/CCND IC50 (25-250 nM)
[8] = x = IC50 25-250 nM, read-out: CDK1/CCNB IC50 (25-250 nM)
[9] = >250 nM, 1 mM ATP, read-out: CDK6/CCND IC50, >250 nM
[10] = >250 nM, read-out: CDK4/CCND IC50, >250 nM
[11] = 25-250 nM, read-out: CDK2/CCNE IC50, 25-250 nM
[12] = >250 nM, read-out: CDK1/CCNB IC50 >250 nM
[13] = <25 nM, read-out: CDK2/CCNE IC50, <25 nM

Sequence of CDK6/CCND1 (Q00534 whole entry): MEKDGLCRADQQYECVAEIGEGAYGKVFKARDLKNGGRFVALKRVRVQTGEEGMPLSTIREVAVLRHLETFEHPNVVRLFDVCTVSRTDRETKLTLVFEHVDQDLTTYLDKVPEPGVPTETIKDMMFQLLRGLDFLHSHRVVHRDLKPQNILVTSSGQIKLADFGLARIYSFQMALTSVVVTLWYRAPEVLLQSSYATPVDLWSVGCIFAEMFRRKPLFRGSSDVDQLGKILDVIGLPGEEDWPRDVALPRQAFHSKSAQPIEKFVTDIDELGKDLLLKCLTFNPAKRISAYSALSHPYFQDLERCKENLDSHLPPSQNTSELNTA
Sequence of CDK6/CCND1 (P24385 whole entry partner): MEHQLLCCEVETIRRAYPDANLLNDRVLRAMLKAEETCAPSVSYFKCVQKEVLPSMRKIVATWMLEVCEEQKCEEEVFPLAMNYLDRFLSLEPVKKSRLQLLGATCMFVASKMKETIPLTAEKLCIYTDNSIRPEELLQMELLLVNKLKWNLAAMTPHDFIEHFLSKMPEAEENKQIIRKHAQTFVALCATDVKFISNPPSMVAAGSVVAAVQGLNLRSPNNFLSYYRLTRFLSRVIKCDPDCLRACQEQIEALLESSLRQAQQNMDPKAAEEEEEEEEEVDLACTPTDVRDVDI

| SMILES | pIC50 (CDK6/CCND1; [1]) | pIC50 (CDK4/CCND3; [2]) | pIC50 (CDK2/CCNE1; [3]) | pIC50 (CDK1/CCNB1; [4]) | pIC50 (CDK1/CCNB1; [8]) | other results |
| --- | --- | --- | --- | --- | --- | --- |
| CS(=O)(=O)c1ccc(Nc2cc3c(C#Cc4ccc(CCO)cc4)nccc3cn2)cc1 [Ex 652, 2-(4-((7-((4-(methylsulfonyl)phenyl)amino)-2,6-naphthyridin-1-yl)ethynyl)phenyl)ethan-1-ol] | < 6.60 | < 6.60 | > 7.60 | < 6.60 | – | – |
| COC(=O)N1CCC(C#Cc2nccc3cnc(Nc4ccc(S(C)(=O)=O)cc4)cc23)CC1 [Ex 653, methyl 4-((7-((4-(methylsulfonyl)phenyl)amino)-2,6-naphthyridin-1-yl)ethynyl)piperidine-1-carboxylate] | < 6.60 | < 6.60 | – | < 6.60 | – | pIC50 (CDK2/CCNE1; [5]): 6.60 to 7.60 |
| Cn1cc2c(Cl)c(-c3nccc4cnc(Nc5ccc(S(C)(=O)=O)cc5)cc34)ccc2n1 [Ex 655, 5-(4-chloro-2-methyl-2H-indazol-5-yl)-N-(4-(methylsulfonyl)phenyl)-2,6-naphthyridin-3-amine] | < 6.60 | < 6.60 | > 7.60 | < 6.60 | – | – |
| COc1cc(C#Cc2nccc3cnc(Nc4ccc(S(C)(=O)=O)cc4)cc23)ccn1 [Ex 660, 5-((2-methoxypyridin-4-yl)ethynyl)-N-(4-(methylsulfonyl)phenyl)-2,6-naphthyridin-3-amine] | < 6.60 | < 6.60 | – | < 6.60 | – | pIC50 (CDK2/CCNE1; [5]): 6.60 to 7.60 |
| CS(=O)(=O)c1ccc(Nc2cc3c(C#Cc4cn[nH]c4)nccc3cn2)cc1 [Ex 664, 5-((1H-pyrazol-4-yl)ethynyl)-N-(4-(methylsulfonyl)phenyl)-2,6-naphthyridin-3-amine] | < 6.60 | < 6.60 | > 7.60 | < 6.60 | – | – |
| N#Cc1ccc(C#Cc2nccc3cnc(Nc4ccc(S(=O)(=O)CCO)cc4)cc23)cc1 [Ex 665, 4-((7-((4-((2-hydroxyethyl)sulfonyl)phenyl)amino)-2,6-naphthyridin-1-yl)ethynyl)benzonitrile] | < 6.60 | < 6.60 | – | < 6.60 | – | pIC50 (CDK2/CCNE1; [5]): 6.60 to 7.60 |
| CS(=O)(=O)c1ccc(Nc2cc3c(C#Cc4ccc(=O)[nH]c4)nccc3cn2)cc1 [Ex 667, 5-((7-((4-(methylsulfonyl)phenyl)amino)-2,6-naphthyridin-1-yl)ethynyl)pyridin-2(1H)-one] | < 6.60 | – | > 7.60 | – | 6.60 to 7.60 | pIC50 (CDK4/CCND3; [7]): 6.60 to 7.60 |
| CS(=O)(=O)c1ccc(Nc2cc3c(C#Cc4ccc(C#N)nc4)nccc3cn2)cc1 [Ex 669, 5-((7-((4-(methylsulfonyl)phenyl)amino)-2,6-naphthyridin-1-yl)ethynyl)picolinonitrile] | < 6.60 | < 6.60 | – | < 6.60 | – | pIC50 (CDK2/CCNE1; [5]): 6.60 to 7.60 |
| Cc1c(-c2nccc3cnc(Nc4ccc(S(=O)(=O)NCC(F)(F)F)cc4)cc23)ccc2c1cnn2CC(O)(C(F)(F)F)C(F)(F)F [Ex 684, 4-((5-(4-methyl-1-(3,3,3-trifluoro-2-hydroxy-2-(trifluoromethyl)propyl)-1H-indazol-5-yl)-2,6-naphthyridin-3-yl)amino)-N-(2,2,2-trifluoroethyl)benzenesulfonamide] | – | – | – | – | – | pIC50 (CDK6/CCND1; [9]): < 6.60; pIC50 (CDK4/CCND3; [10]): < 6.60; pIC50 (CDK2/CCNE1; [11]): 6.60 to 7.60; pIC50 (CDK1/CCNB1; [12]): < 6.60 |
| Cc1ccc(NS(=O)(=O)c2ccc(Nc3cc4c(-c5ccc6c(cnn6CC(O)(C(F)(F)F)C(F)(F)F)c5C)nccc4cn3)cc2)nc1N1CCOCC1 [Ex 694, 4-((5-(4-methyl-1-(3,3,3-trifluoro-2-hydroxy-2-(trifluoromethyl)propyl)-1H-indazol-5-yl)-2,6-naphthyridin-3-yl)amino)-N-(5-methyl-6-morpholinopyridin-2-yl)benzenesulfonamide] | – | – | – | – | – | pIC50 (CDK6/CCND1; [9]): < 6.60; pIC50 (CDK4/CCND3; [10]): < 6.60; pIC50 (CDK2/CCNE1; [11]): 6.60 to 7.60; pIC50 (CDK1/CCNB1; [12]): < 6.60 |
| CCNS(=O)(=O)c1ccc(Nc2cc3c(-c4ccc5c(cnn5CC(O)(C(F)(F)F)C(F)(F)F)c4C)nccc3cn2)cc1 [Ex 695, N-ethyl-4-((5-(4-methyl-1-(3,3,3-trifluoro-2-hydroxy-2-(trifluoromethyl)propyl)-1H-indazol-5-yl)-2,6-naphthyridin-3-yl)amino)benzenesulfonamide] | – | – | – | – | – | pIC50 (CDK6/CCND1; [9]): < 6.60; pIC50 (CDK4/CCND3; [10]): < 6.60; pIC50 (CDK2/CCNE1; [13]): > 7.60; pIC50 (CDK1/CCNB1; [12]): < 6.60 |
| COc1ccc(NS(=O)(=O)c2ccc(Nc3cc4c(-c5ccc6c(cnn6CC(O)(C(F)(F)F)C(F)(F)F)c5C)nccc4cn3)cc2)nc1N1CCOCC1 [Ex 697, N-(5-methoxy-6-morpholinopyridin-2-yl)-4-((5-(4-methyl-1-(3,3,3-trifluoro-2-hydroxy-2-(trifluoromethyl)propyl)-1H-indazol-5-yl)-2,6-naphthyridin-3-yl)amino)benzenesulfonamide] | – | – | – | – | – | pIC50 (CDK6/CCND1; [9]): < 6.60; pIC50 (CDK4/CCND3; [10]): < 6.60; pIC50 (CDK2/CCNE1; [11]): 6.60 to 7.60; pIC50 (CDK1/CCNB1; [12]): < 6.60 |
| Cc1cnc(NS(=O)(=O)c2ccc(Nc3cc4c(-c5ccc6c(cnn6CC(O)(C(F)(F)F)C(F)(F)F)c5C)nccc4cn3)cc2)cc1N1CCOCC1 [Ex 701, 4-((5-(4-methyl-1-(3,3,3-trifluoro-2-hydroxy-2-(trifluoromethyl)propyl)-1H-indazol-5-yl)-2,6-naphthyridin-3-yl)amino)-N-(5-methyl-4-morpholinopyridin-2-yl)benzenesulfonamide] | – | – | – | – | – | pIC50 (CDK6/CCND1; [9]): < 6.60; pIC50 (CDK4/CCND3; [10]): < 6.60; pIC50 (CDK2/CCNE1; [13]): > 7.60; pIC50 (CDK1/CCNB1; [12]): < 6.60 |

Now from value to compound, other results behind:

| pIC50 (CDK6/CCND1; [1]) | pIC50 (CDK4/CCND3; [2]) | pIC50 (CDK2/CCNE1; [3]) | pIC50 (CDK1/CCNB1; [4]) | pIC50 (CDK1/CCNB1; [8]) | SMILES | other results |
| --- | --- | --- | --- | --- | --- | --- |
| < 6.60 | < 6.60 | – | < 6.60 | – | Cc1c(-c2nccc3cnc(Nc4ccc(S(C)(=O)=O)cc4)cc23)ccc2c1cnn2CC#N [Ex 656, 2-(4-methyl-5-(7-((4-(methylsulfonyl)phenyl)amino)-2,6-naphthyridin-1-yl)-1H-indazol-1-yl)acetonitrile] | pIC50 (CDK2/CCNE1; [5]): 6.60 to 7.60 |
| – | – | > 7.60 | – | 6.60 to 7.60 | Cc1c(-c2nccc3cnc(Nc4ccc(S(C)(=O)=O)cc4)cc23)ccc2c1ccn2CCO [Ex 657, 2-(4-methyl-5-(7-((4-(methylsulfonyl)phenyl)amino)-2,6-naphthyridin-1-yl)-1H-indol-1-yl)ethan-1-ol] | pIC50 (CDK6/CCND1; [6]): 6.60 to 7.60; pIC50 (CDK4/CCND3; [7]): 6.60 to 7.60 |
| – | – | > 7.60 | – | 6.60 to 7.60 | Cc1c(-c2nccc3cnc(Nc4ccc(S(C)(=O)=O)cc4)cc23)ccc2cn[nH]c12 [Ex 658, 5-(7-methyl-1H-indazol-6-yl)-N-(4-(methylsulfonyl)phenyl)-2,6-naphthyridin-3-amine] | pIC50 (CDK6/CCND1; [6]): 6.60 to 7.60; pIC50 (CDK4/CCND3; [7]): 6.60 to 7.60 |
| – | – | > 7.60 | – | 6.60 to 7.60 | Cc1c(-c2nccc3cnc(Nc4ccc(S(=O)(=O)C5CC5)cc4)cc23)ccc2c1cnn2CCO [Ex 662, 2-(5-(7-((4-(cyclopropylsulfonyl)phenyl)amino)-2,6-naphthyridin-1-yl)-4-methyl-1H-indazol-1-yl)ethan-1-ol] | pIC50 (CDK6/CCND1; [6]): 6.60 to 7.60; pIC50 (CDK4/CCND3; [7]): 6.60 to 7.60 |
| – | – | > 7.60 | – | 6.60 to 7.60 | Cc1c(-c2nccc3cnc(Nc4ccc(S(N)(=O)=O)cc4)cc23)ccc2c1cnn2CCO [Ex 673, 4-((5-(1-(2-hydroxyethyl)-4-methyl-1H-indazol-5-yl)-2,6-naphthyridin-3-yl)amino)benzenesulfonamide] | pIC50 (CDK6/CCND1; x = IC50 <25 nM, read-out: CDK6/CCND IC50 (<25 nM)): > 7.60; pIC50 (CDK4/CCND3; x = IC50 <25 nM, read-out: CDK4/CCND IC50 (<25 nM)): > 7.60 |
| – | – | > 7.60 | – | 6.60 to 7.60 | Cc1c(-c2nccc3cnc(Nc4ccc(S(C)(=O)=O)cc4)cc23)ccc2c1cnn2CC(N)=O [Ex 676, 2-(4-methyl-5-(7-((4-(methylsulfonyl)phenyl)amino)-2,6-naphthyridin-1-yl)-1H-indazol-1-yl)acetamide] | pIC50 (CDK6/CCND1; [6]): 6.60 to 7.60; pIC50 (CDK4/CCND3; [7]): 6.60 to 7.60 |
